Measurements: ChEMBL document CHEMBL3112450, “Synthesis and in vitro antitumor evaluation of primary amine substituted quinazoline linked benzimidazole” (Bioorg Med Chem Lett, 2014)

How the values were obtained:
[1] = Cytotoxicity against human UACC257 cells assessed as cell growth at 10^-7 M after 48 hrs by SRB assay; assay type: functional; details: UACC-257, 48 h, read-out: Activity
A549 [2] = test: Cytotoxicity against human A549 cells after 48 hrs by SRB assay; assay type: functional; details: A549, 48 h
A549 [3] = test: Cytotoxicity against human A549 cells assessed as cell growth at 10^-7 M after 48 hrs by SRB assay; assay type: functional; details: A549, 48 h, read-out: Activity
[4] = Cytotoxicity against human UACC257 cells assessed as cell growth at 10^-4 M after 48 hrs by SRB assay; assay type: functional; details: UACC-257, 48 h, read-out: Activity
[5] = Cytotoxicity against human UACC257 cells assessed as cell growth at 10^-8 M after 48 hrs by SRB assay; assay type: functional; details: UACC-257, 48 h, read-out: Activity
A549 [6] = test: Cytotoxicity against human A549 cells assessed as cell growth at 10^-8 M after 48 hrs by SRB assay; assay type: functional; details: A549, 48 h, read-out: Activity
MDA-MB-468 = test: Cytotoxicity against human MDA-MB-468 cells assessed as growth inhibition at 10 uM after 48 hrs by SRB assay; assay type: functional; details: MDA-MB-468, 48 h, read-out: GI
[7] = Cytotoxicity against human Hs578T cells assessed as growth inhibition at 10 uM after 48 hrs by SRB assay; assay type: functional; details: Hs-578T, read-out: GI
MDA-MB-231 = test: Cytotoxicity against human MDA-MB-231 cells assessed as growth inhibition at 10 uM after 48 hrs by SRB assay; assay type: functional; details: MDA-MB-231, 48 h, read-out: GI
PC-3 = test: Cytotoxicity against human PC3 cells assessed as growth inhibition at 10 uM after 48 hrs by SRB assay; assay type: functional; details: PC-3, 48 h, read-out: GI
[8] = Cytotoxicity against human UO31 cells assessed as growth inhibition at 10 uM after 48 hrs by SRB assay; assay type: functional; details: UO-31, 48 h, read-out: GI
CAKI-1 = test: Cytotoxicity against human Caki1 cells assessed as growth inhibition at 10 uM after 48 hrs by SRB assay; assay type: functional; details: CAKI-1, 48 h, read-out: GI
RXF 393 = test: Cytotoxicity against human RXF393 cells assessed as growth inhibition at 10 uM after 48 hrs by SRB assay; assay type: functional; details: RXF 393, 48 h, read-out: GI
[9] = Cytotoxicity against human NCI-ADR-RES cells assessed as growth inhibition at 10 uM after 48 hrs by SRB assay; assay type: functional; details: read-out: GI
[10] = Cytotoxicity against human OVCAR4 cells assessed as growth inhibition at 10 uM after 48 hrs by SRB assay; assay type: functional; details: OVCAR-4, 48 h, read-out: GI
SK-MEL-5 = test: Cytotoxicity against human SK-MEL-5 cells assessed as growth inhibition at 10 uM after 48 hrs by SRB assay; assay type: functional; details: SK-MEL-5, 48 h, read-out: GI
MDA-MB-435 = test: Cytotoxicity against human MDA-MB-435 cells assessed as growth inhibition at 10 uM after 48 hrs by SRB assay; assay type: functional; details: MDA-MB-435, 48 h, read-out: GI
U-251 = test: Cytotoxicity against human U251 cells assessed as growth inhibition at 10 uM after 48 hrs by SRB assay; assay type: functional; details: U-251, 48 h, read-out: GI
SNB-75 [11] = test: Cytotoxicity against human SNB75 cells assessed as growth inhibition at 10 uM after 48 hrs by SRB assay; assay type: functional; details: SNB-75, 48 h, read-out: GI
SNB-75 [12] = test: Cytotoxicity against human SNB75 cells after 48 hrs by SRB assay; assay type: functional, cell-based; details: SNB-75, 48 h
SNB-75 [13] = test: Cytotoxicity against human SNB75 cells assessed as cell growth at 10^-4 M after 48 hrs by SRB assay; assay type: functional; details: SNB-75, 48 h, read-out: Activity
SNB-75 [14] = test: Cytotoxicity against human SNB75 cells assessed as cell growth at 10^-6 M after 48 hrs by SRB assay; assay type: functional; details: SNB-75, 48 h, read-out: Activity
SNB-75 [15] = test: Cytotoxicity against human SNB75 cells assessed as cell growth at 10^-7 M after 48 hrs by SRB assay; assay type: functional; details: SNB-75, 48 h, read-out: Activity
SNB-75 [16] = test: Cytotoxicity against human SNB75 cells assessed as cell growth at 10^-8 M after 48 hrs by SRB assay; assay type: functional; details: SNB-75, 48 h, read-out: Activity
[17] = Cytotoxicity against human UACC257 cells after 48 hrs by SRB assay; assay type: functional; details: UACC-257, 48 h
KM12 = test: Cytotoxicity against human KM12 cells assessed as growth inhibition at 10 uM after 48 hrs by SRB assay; assay type: functional; details: KM12, 48 h, read-out: GI
HT-29 = test: Cytotoxicity against human HT-29 cells assessed as growth inhibition at 10 uM after 48 hrs by SRB assay; assay type: functional; details: HT-29, 48 h, read-out: GI
HCT-15 = test: Cytotoxicity against human HCT15 cells assessed as growth inhibition at 10 uM after 48 hrs by SRB assay; assay type: functional; details: HCT-15, 48 h, read-out: GI
HCT-116 = test: Cytotoxicity against human HCT116 cells assessed as growth inhibition at 10 uM after 48 hrs by SRB assay; assay type: functional; details: HCT-116, 48 h, read-out: GI
COLO 205 = test: Cytotoxicity against human COLO205 cells assessed as growth inhibition at 10 uM after 48 hrs by SRB assay; assay type: functional; details: COLO 205, 48 h, read-out: GI
NCI-H460 = test: Cytotoxicity against human NCI-H460 cells assessed as growth inhibition at 10 uM after 48 hrs by SRB assay; assay type: functional; details: NCI-H460, 48 h, read-out: GI
NCI-H23 = test: Cytotoxicity against human NCI-H23 cells assessed as growth inhibition at 10 uM after 48 hrs by SRB assay; assay type: functional; details: NCI-H23, 48 h, read-out: GI
SR = test: Cytotoxicity against human SR cells assessed as growth inhibition at 10 uM after 48 hrs by SRB assay; assay type: functional; details: read-out: GI
HL-60(TB) = test: Cytotoxicity against human HL-60(TB) cells assessed as growth inhibition at 10 uM after 48 hrs by SRB assay; assay type: functional; details: HL-60, 48 h, read-out: GI
K562 = test: Cytotoxicity against human K562 cells assessed as growth inhibition at 10 uM after 48 hrs by SRB assay; assay type: functional; details: K562, 48 h, read-out: GI
CCRF-CEM = test: Cytotoxicity against human CCRF-CEM cells assessed as growth inhibition at 10 uM after 48 hrs by SRB assay; assay type: functional; details: read-out: GI
[18] = Cytotoxicity against human UACC257 cells assessed as cell growth at 10^-6 M after 48 hrs by SRB assay; assay type: functional; details: UACC-257, 48 h, read-out: Activity
A549 [19] = test: Cytotoxicity against human A549 cells assessed as cell growth at 10^-6 M after 48 hrs by SRB assay; assay type: functional; details: A549, 48 h, read-out: Activity

C=CCn1c(C)nc2ccc(Nc3nc(Nc4ccc(F)cc4)nc4ccccc34)cc21
growth at 0.1 µM [1]: 98% | GI50 (A549 [2]): 4.18 µM | LC50 (A549 [2]): > 100 µM | TGI (A549 [2]): 22.2 µM | growth at 0.1 µM (A549 [3]): 97% | growth at 100 µM [4]: -73% | growth at 0.01 µM [5]: 98% | growth at 0.01 µM (A549 [6]): 94% | inhibition of growth at 10 µM (MDA-MB-468): 50% | inhibition of growth at 10 µM [7]: 40% | inhibition of growth at 10 µM (MDA-MB-231): 30% | inhibition of growth at 10 µM (PC-3): 50% | inhibition of growth at 10 µM [8]: 50% | inhibition of growth at 10 µM (CAKI-1): 40% | inhibition of growth at 10 µM (RXF 393): 30% | inhibition of growth at 10 µM [9]: 50% | inhibition of growth at 10 µM [10]: 50% | inhibition of growth at 10 µM (SK-MEL-5): 50% | inhibition of growth at 10 µM (MDA-MB-435): 40% | inhibition of growth at 10 µM (U-251): 40% | inhibition of growth at 10 µM (SNB-75 [11]): 40% | GI50 (SNB-75 [12]): 1.51 µM | IC50 (SNB-75 [12]): 7.5 µM | TGI (SNB-75 [12]): 3.37 µM | growth at 100 µM (SNB-75 [13]): -57% | growth at 1 µM (SNB-75 [14]): 76% | growth at 0.1 µM (SNB-75 [15]): 80% | growth at 0.01 µM (SNB-75 [16]): 76% | GI50 [17]: 13.1 µM | LC50 (concentration killing 50% of cells) [17]: 68.3 µM | TGI [17]: 29.9 µM | inhibition of growth at 10 µM (KM12): 50% | inhibition of growth at 10 µM (HT-29): 70% | inhibition of growth at 10 µM (HCT-15): 50% | inhibition of growth at 10 µM (HCT-116): 70% | inhibition of growth at 10 µM (COLO 205): 50% | inhibition of growth at 10 µM (NCI-H460): 30% | inhibition of growth at 10 µM (NCI-H23): 40% | inhibition of growth at 10 µM (SR): 70% | inhibition of growth at 10 µM (HL-60(TB)): 40% | inhibition of growth at 10 µM (K562): 70% | inhibition of growth at 10 µM (CCRF-CEM): 70% | growth at 1 µM [18]: 92% | growth at 1 µM (A549 [19]): 89%

C=CCn1c(C)nc2ccc(Nc3nc(Sc4ccc(N)cc4)nc4ccccc34)cc21
inhibition of growth at 10 µM (CCRF-CEM): 30%
